Like-named read-outs stand apart in the source and are kept apart here.
Key:
[1] = target: T1, L-amino acid oxidase from Rhodococcus opacus (Rhodococcus opacus, UniProt Q8VPD4); assay: Substrate spectrum and stereospecificity of L-amino acid oxidase; type: biochemical; settings: relative to 10 mM L-alanine
T1 construct: made in house; host or cells: Rhodococcus opacus DSM 43250, the natural producer; purified from crude cell extract, not recombinant
Method: The transformation of a large number of natural and non-natural amino acids was investigated. The following test batch (1 mL) was used for this purpose: 10 mM enantiomer-pure amino acid (or 20 mM D,L-amino acid); 0.2 M TEA-HCl buffer, pH 7.6; 0.2 mg/mL odianisidine; 10 U/mL POX; L-amino acid oxidase solution in limiting amounts. The activity measurements were carried out by photometry at 436 nm and 30° C.
The stereospecificity of the L-amino acid oxidase was measured for several substrates (e.g. alanine, asparagine, glutamine, phenylalanine, methionine, leucine, ornithine, lysine, histidine), in that both the D-form and the L-form, as well as the racemate were used. In this connection, D-amino acids are not transformed in any case. The activities with the racemates were as high, for all the substrates, as for the pure L-amino acids in each instance. […] In the determination of the substrate spectrum, it is therefore also possible to use the D,L-form.
The measured activity values were indicated as relative values with reference to the activity with 10 mM L-alanine (Table 4). Weak activity was indicated with a + in the table.

[2] = target: T1, L-amino acid oxidase from Rhodococcus opacus; assay: biochemical
Method: To determine the kinetic constants, the reaction speed of oxidation was studied at different concentrations of amino acid and for different L-amino acids, under the following conditions (tests in microtiter plates):
0.2 M TEA-HCl buffer, pH 7.6; 0.2 mg/mL o-dianisidine; 25 U/mL POX; L-amino acid oxidase in limiting amounts; varying concentrations of the different L-amino acids. Activity measurement was conducted by photometry at 450 nm and 30° C.
The kinetic constants Vmax.

[3] = target: T1, L-amino acid oxidase from Rhodococcus opacus; assay: Transformation of D,L-amino acid with L-amino acid oxidase, HPLC analysis of L- and D-form; type: biochemical; settings: for concentration of the D-form during the reaction: 7 mM D,L-amino acid
Method: […] The total volume of the batch was 1 mL. Samples (50 μL) were taken at regular intervals, and analyzed for the content of L- and D-phenylalanine, using HPLC. Directly after being taken, the samples were heated to 95° C. for 3 min, and then the precipitated protein was centrifuged off. 20 μL of the diluted top fraction were put into 180 μL 100 mM sodium borate buffer, pH 10.4, and mixed with 20 μL of a derivativization reagent (260 mM isobuturyl-L-cysteine (IBLC) and 170 mM ophthaldialdehyde (OPA) in 100 mM sodium borate buffer, pH 10.4).
Separation conditions of HPLC:
Column: RP-18, 250×4 mm, 5 Am, Kromasil (Phenomenex, Aschaffenburg, Germany)
Detection: fluorescence, Ex. 340 nm, Em. 440 nm
Flow agent A: 23 mM sodium acetate buffer; pH 6.5 adjusted with acetic acid
Flow agent B: acetonitrile:water (10:1.5)

[4] = 10 mM enantiomer-pure amino acid, pH 7.6, 30° C., 436 nm
[5] = marked #: used in racemic form (20 mM D,L-amino acid)
[6] = marked *: poor solubility, 100 μL top fraction of saturated L-amino acid solution per batch
[7] = 0.2 M TEA-HCl buffer, pH 7.6, 30° C., constant of the amino acid as substrate, read-out: Ki

T1 sequence (Q8VPD4 46-534): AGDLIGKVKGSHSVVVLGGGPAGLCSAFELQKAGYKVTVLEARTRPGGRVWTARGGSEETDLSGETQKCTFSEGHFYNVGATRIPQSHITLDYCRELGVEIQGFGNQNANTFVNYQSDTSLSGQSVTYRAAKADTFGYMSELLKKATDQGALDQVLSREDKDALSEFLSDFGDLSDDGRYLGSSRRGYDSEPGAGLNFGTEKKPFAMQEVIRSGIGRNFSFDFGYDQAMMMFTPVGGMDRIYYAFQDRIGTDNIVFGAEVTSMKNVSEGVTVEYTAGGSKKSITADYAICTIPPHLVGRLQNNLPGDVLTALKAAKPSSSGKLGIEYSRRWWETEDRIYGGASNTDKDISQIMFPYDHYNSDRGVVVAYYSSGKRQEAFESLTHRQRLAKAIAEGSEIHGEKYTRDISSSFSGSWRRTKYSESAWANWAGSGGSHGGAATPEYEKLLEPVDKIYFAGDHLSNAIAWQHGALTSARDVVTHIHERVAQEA

Structure (SMILES)	Rel. activity (%) [1, 4]	also measured
N[C@@H](Cc1ccc(Cl)cc1)C(=O)O (racemic) [4-chlorophenylalanine]	9%	–
N[C@@H](Cc1ccc(F)cc1)C(=O)O (racemic) [4-fluorophenylalanine]	–	Rel. activity (%) [1, 5]: 25%
N[C@@H](CCc1ccccc1)C(=O)O (racemic) [Homophenylalanine]	–	Rel. activity (%) ([1]; marked *#: racemic form, low concentration (top fraction of saturated solution)): 50%
CCCC[C@H](N)C(=O)O (racemic) [Norleucine]	–	Rel. activity (%) [1, 5]: 73%
COC[C@H](N)C(=O)O (racemic) [O-methyl serine]	–	Rel. activity (%) [1, 5]: 99%
N[C@H](C(=O)O)C(O)c1ccccc1 (mixture of isomers) [β-Phenyl serine]	–	Rel. activity (%) [1, 5]: 8%
NC1CCOC1=O (stereo not drawn) [2-amino-4-butyrolactone]	66%	–
CC(C)(C)CCC(N)C(=O)O (stereo not drawn) [2-amino-5,5-dimethyl hexanic acid]	44%	–
N[C@@H](Cc1ccccc1Cl)C(=O)O [2-chlorophenylalanine]	24%	–
NCC(N)C(=O)O (stereo not drawn) [2.3-diaminopropionic acid]	71%	–
NCCC(N)C(=O)O (stereo not drawn) [2.4-diaminobutyric acid]	100%	–
N[C@@H](Cc1cccc2ccccc12)C(=O)O [3-(1-naphthyl)alanine]	–	Rel. activity (%) [1, 6]: 109%
Nc1ccc(C[C@H](N)C(=O)O)cc1 [4-aminophenylalanine]	16%	–
N[C@@H](Cc1ccc([N+](=O)[O-])cc1)C(=O)O [4-nitrophenylalanine]	–	Rel. activity (%) [1, 6]: 30%
C[C@H](N)C(=O)O [Alanine, L-alanine]	100%	–
N=C(N)NCCC[C@H](N)C(=O)O [Arginine]	70%	Ki [2]: 5.42 mM
NC(=O)C[C@H](N)C(=O)O [Asparagine]	97%	–
NC(=O)NCCC[C@H](N)C(=O)O [Citrulline]	74%	Ki [2, 7]: 20.6 mM

Structure (SMILES)	Rel. activity (%) [1, 4]	also measured
N[C@@H](CSSC[C@H](N)C(=O)O)C(=O)O [Cystine]	–	Rel. activity (%) [1, 6]: 104%
CC(C)C[C@@H](N)C(=O)O [D-leucine]	–	concentration of the D-form during the reaction ([3]; 35 μg/mL enzyme, pH 7.6): remains constant; ee value ([3]; after a reaction time of 20 min): ≥ 99.2%
N[C@H](Cc1ccccc1)C(=O)O [D-phenylalanine]	–	concentration of the D-form during the reaction ([3]; 35 μg/mL enzyme, pH 7.6): remains constant; ee value ([3]; after a reaction time of 30 min): ≥ 99.2%; ee value ([3]; after a reaction time of 180 min): ≥ 99.5%
NC(=O)CC[C@H](N)C(=O)O [Glutamine]	52%	–
N[C@@H](Cc1c[nH]cn1)C(=O)O [Histidine]	36%	–
NC1CCSC1=O (stereo not drawn) [Homocysteine thiolactone]	23%	–
CC[C@H](C)[C@H](N)C(=O)O [Isoleucine]	45%	–
CC(C)C[C@H](N)C(=O)O [Leucine, L-leucine]	68%	Ki [2, 7]: 5.69 mM; transformation of the L-form ([3]; 7 mM D,L-leucine, during the first 20 min): almost completely transformed
NCCCC[C@H](N)C(=O)O [Lysine, L-lysine]	55%	Ki [2]: 63.7 mM
CSCC[C@H](N)C(=O)O [Methionine]	72%	Ki [2]: 6.84 mM; Vmax (U/mg) ([2]; 0.2 M TEA-HCl buffer, pH 7.6, 30° C.): 6.43 U/mg
CC(=O)NCCCC[C@H](N)C(=O)O [Nε-acetyllysine]	46%	–
NCCC[C@H](N)C(=O)O [Ornithine]	117%	Ki [2]: 12.5 mM
N[C@@H](Cc1ccccc1)C(=O)O [Phenylalanine, L-phenylalanine]	53%	Ki [2, 7]: 5.29 mM; concentration in the course of the reaction ([3]; 7 mM D,L-phenylalanine, 35 μg/mL enzyme, pH 7.6, originally 3.5 mM): < 0.01 mM
N[C@@H](CO)C(=O)O [Serine]	72%	–
N[C@@H](Cc1c[nH]c2ccccc12)C(=O)O [Tryptophan]	12%	–
N[C@@H](Cc1ccc(O)cc1)C(=O)O [Tyrosine]	–	Rel. activity (%) [1, 6]: 54%
CC(C)[C@H](N)C(=O)O [Valine, L-valine]	32%	–
